For orientation: Kd means the constant that tells how readily two partners part at equilibrium. What is called IC50 is the point on the concentration scale where inhibition reaches its midpoint. In general, KD refers to the constant that tells how readily two partners part at equilibrium. Lower therefore signals higher affinity.

SMILES strings stand for the structures.

The record followed here is paper PMC6868041, “Evans Blue Inhibits HBV Replication Through a Dual Antiviral Mechanism by Targeting Virus Binding and Capsid Assembly” (Frontiers in Microbiology, 2019).

The target of experiment [1] is T1, NTCP (recombinant His-tagged human NTCP; hNTCP) (Homo sapiens, UniProt Q14973).
T1 sequence (Q14973 1-349): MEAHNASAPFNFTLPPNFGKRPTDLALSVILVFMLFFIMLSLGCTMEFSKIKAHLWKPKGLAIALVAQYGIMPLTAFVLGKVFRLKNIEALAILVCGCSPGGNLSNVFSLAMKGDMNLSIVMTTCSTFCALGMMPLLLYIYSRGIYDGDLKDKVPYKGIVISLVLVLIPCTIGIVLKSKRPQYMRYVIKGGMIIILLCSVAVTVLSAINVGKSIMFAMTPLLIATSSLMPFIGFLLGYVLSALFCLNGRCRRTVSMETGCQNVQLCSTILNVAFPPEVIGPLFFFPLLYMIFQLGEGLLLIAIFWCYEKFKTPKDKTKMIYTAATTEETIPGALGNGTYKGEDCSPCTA
Nature of the experiment: biolayer interferometry (Octet RED). It is filed as binding. Details: gene SLC10A1; full-length from pEnter-hNTCP, His-tag, expressed in and purified from HEK293T, biotinylated for Octet.

Experiment [2] addresses T1, NTCP (recombinant His-tagged human NTCP; hNTCP). Nature of the experiment: inhibition of FITC-preS1-myr binding to Huh7D-hNTCP cells, high-content imaging. Details: gene SLC10A1. The format is cell-based. An excerpt: inhibition of FITC-preS1-myr binding to Huh7D-hNTCP cells, high-content imaging on NTCP (recombinant His-tagged human NTCP; hNTCP) | inhibited the binding of FITC-preS1 to cells in a concentration-dependent manner with an IC50

The target in the next experiment is T2, BSA (Bos taurus, UniProt P02769).
T2 construct: gene ALB; commercial serum albumin, biotinylated, control protein
T2 sequence (P02769 25-607): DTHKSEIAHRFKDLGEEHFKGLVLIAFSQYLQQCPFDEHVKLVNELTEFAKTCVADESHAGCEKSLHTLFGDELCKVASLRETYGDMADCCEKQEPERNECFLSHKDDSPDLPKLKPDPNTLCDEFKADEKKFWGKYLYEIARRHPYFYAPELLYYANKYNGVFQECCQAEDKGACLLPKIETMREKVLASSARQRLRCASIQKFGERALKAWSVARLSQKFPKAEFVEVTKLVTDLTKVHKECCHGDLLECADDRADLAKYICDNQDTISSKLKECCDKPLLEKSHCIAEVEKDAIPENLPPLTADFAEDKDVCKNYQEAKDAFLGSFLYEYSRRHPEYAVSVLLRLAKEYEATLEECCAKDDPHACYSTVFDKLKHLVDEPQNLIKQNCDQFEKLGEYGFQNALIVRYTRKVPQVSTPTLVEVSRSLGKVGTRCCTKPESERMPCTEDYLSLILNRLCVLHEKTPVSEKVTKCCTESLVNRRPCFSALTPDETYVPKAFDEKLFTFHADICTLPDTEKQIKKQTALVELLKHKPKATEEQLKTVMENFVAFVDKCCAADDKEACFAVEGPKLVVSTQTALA
Description: biolayer interferometry (Octet RED). The format is binding. As to conditions: negative control protein, biotinylated BSA on sensor; paper states no interaction; unreliable.

Consider `Cc1cc(-c2ccc(/N=N/c3ccc4c(S(=O)(=O)O)cc(S(=O)(=O)O)c(N)c4c3O)c(C)c2)ccc1/N=N/c1ccc2c(S(=O)(=O)O)cc(S(=O)(=O)O)c(N)c2c1O` [Evans blue], for which the Kd in experiment [1] was 0.0882 µM. Besides, in experiment [2], the 50% inhibitory concentration (IC50) is around 5 µM. In addition, at BSA, the KD is 468 µM.
